Earlier results on one molecule are cited in US10881613B2, “Fumarate polymersomes” (UCL BUSINESS LTD, priority 2016, dated 2021).

For the data set the following is noted: in vivo.

For the molecule `CC(O)CO` (stereo not shown) [Propylene glycol], the “half life (metabolized by the liver)” value is 2 h.
